Measured values taken from US7018992B2, “Hormone composition” (Novo Nordisk A/S, priority 2000, dated 2006).
Marks after values point to notes of the source that are not given here.

Legend:
[1] = test system: postmenopausal women with atrophic vaginitis; assay: Patients with vaginal pH values below 5.5, Example 3; assay type: in vivo
Description: (§1) Efficacy was measured with composite scores of vaginal symptoms (dryness, soreness, and irritation) and vaginal health (secretions, epithelial integrity, surface thickness, and pH). Vaginal and urethral cytology analyses were also performed, and the vaginal maturation value was determined. Safety assessments included endometrial biopsies.
(§2) All vaginal tablets were identical in appearance. Patients inserted 1 tablet daily for 14 days. Thereafter, patients inserted 1 tablet twice per week (Sunday and Thursday) for the remainder of the trial. Patients were to insert the tablets at the same time each day (preferably at bedtime). Patients were evaluated for efficacy and safety at Week—4 (screening), Week 0 (baseline), and Weeks 2, 7, and 12.
Investigators used a severity scale of none, mild, moderate, or severe to assess vaginal health characteristics (secretions, epithelial integrity, surface thickness, color, and pH). Severity categories were assigned ascending scores from 0 (none) to 3 (severe) for analysis. To avoid multiple endpoint issues, composite scores were defined. A composite score for vaginal health was defined as the average of the individual vaginal health characteristic scores. The composite score and the change from baseline for the composite score were examined at each time point. Differences within and between treatment groups were analyzed using an analysis of variance (ANOVA).

[2] = test system: follicle stimulating hormone (FSH); assay: Serum FSH concentration (immunoradiometric assay), Example 2; assay type: in vivo, postmenopausal women; details: 25 μg E2, Week 12
Description: (§3) Maturation values of vaginal mucosal cells were assessed as an indicator of changes in the condition of the vaginal mucosa in response to treatment.
(§4) Upon presentation to the clinic for each visit, a vaginal cytology specimen was obtained. Patients then inserted the tablets. […] The blood samples obtained at 30 minutes before insertion, and at 6, 12, and 24 hours after insertion were also used to determine the FSH concentration via immunoradiometric assay.
Data for area under the curve and maximal concentration were converted to a logarithmic scale, and changes from first dose (at the baseline visit) in the logarithmic values were estimated using 95% confidence intervals derived from paired t-tests. […] Differences within treatment groups in FSH concentration were determined using the Wilcoxon signed rank test based on changes from baseline in mean concentrations at weeks 2 and 12. Mean concentrations were defined as the average concentrations obtained at 30 minutes before tablet insertion and 6, 12, and 24 hours after insertion.

[3] = test system: superficial vaginal cells; assay: Vaginal cytology, percentage of superficial cells, Example 3; assay type: in vivo, postmenopausal women
Description: as §1, §2
(§5) Vaginal and urethral cell samples were harvested and analyzed by independent cytologists to determine the percentages of parabasal, intermediate, and superficial cells. Maturation values were calculated according to the following equation: maturation value=1.0×[superficial cells, %]+0.5×[intermediate cells, %] Endometrial biopsies were performed at the end of the study in patients with intact uteri. The number of patients with abnormal biopsies was compared between treatment groups.

[4] = test system: superficial vaginal and urethral cells; assay: Subjects by percentages of both superficial vaginal and urethral cells, Example 3; assay type: in vivo, postmenopausal women
Description: as §2, §5

[5] = test system: superficial urethral cells; assay: Urethral cytology, percentage of superficial cells, Example 3; assay type: in vivo, postmenopausal women
Description: as §1, §2, §5

vaginal cells = assay: Vaginal maturation value, Example 3; assay type: in vivo, postmenopausal women; details: 25 or 10 μg E2 (active treatment groups), Week 12
Description: as §1, §2, §5

endometrium = assay: Endometrial biopsy at end of study, Example 3; assay type: in vivo, postmenopausal women
Description: as §1, §2, §5

vaginal mucosal cells = assay: Maturation value of vaginal mucosal cells, Example 2; assay type: in vivo, postmenopausal women
Description: as §3
After the screening visit, patients received no study treatment during the 4-week run-in period prior to the baseline visit. […] The vaginal tablets were identical in appearance. Patients inserted 1 tablet intravaginally, once daily for the initial 2 weeks of the study and then twice per week (Sunday and Thursday) for the remaining 10 weeks. Patients were instructed to use their medication at a consistent time each day, preferably in the morning.
as §4
The maturation value of vaginal mucosal cells was calculated from the percentages of parabasal, intermediate, and superficial cells according to the following equation: maturation value=0×[parabasal cells, %]+0.5×[intermediate cells, %]+1.0×[superficial cells, %]

C[C@]12CC[C@@H]3c4ccc(O)cc4CC[C@H]3[C@@H]1CC[C@@H]2O [E2, 17β-estradiol]
Number of patients with vaginal pH values below 5.5 ([1]; 10 μg E2, Week 0): 27/89 | Number of patients with vaginal pH values below 5.5 ([1]; 10 μg E2, Week 2): 67/84 | Number of patients with vaginal pH values below 5.5 ([1]; 10 μg E2, Week 7): 57/80 | Number of patients with vaginal pH values below 5.5 ([1]; 10 μg E2, Week 12): 54/71 | Number of patients with vaginal pH values below 5.5 ([1]; 25 μg E2, Week 0): 31/90 | Number of patients with vaginal pH values below 5.5 ([1]; 25 μg E2, Week 2): 64/87 | Number of patients with vaginal pH values below 5.5 ([1]; 25 μg E2, Week 7): 71/83 | Percentage of patients with vaginal pH values below 5.5 ([1]; 25 μg E2, Week 7): 85.5% | Number of patients with vaginal pH values below 5.5 ([1]; 25 μg E2, Week 12): 63/79 | Percentage of patients with vaginal pH values below 5.5 ([1]; 25 or 10 μg E2 (active treatment groups), Week 12): 75% | Number of patients with mean FSH concentrations below 35 [2]: 3 patients | Mean percentage of superficial vaginal cells ([3]; 10 μg E2, Week 0): 3.1% | Mean change from baseline in percentage of superficial vaginal cells ([3]; 10 μg E2, Week 2): 25.0^a % | Mean percentage of superficial vaginal cells ([3]; 25 μg E2, Week 0): 4.0% | Number of subjects with both superficial vaginal and urethral cells less than or equal to 5% ([4]; 10 μg E2, Week 0): 53 subjects | Number of subjects with increases in percentages of both superficial vaginal and urethral cells ([4]; 10 μg E2, Week 12): 44 subjects | Number of subjects with both superficial vaginal and urethral cells less than or equal to 5% ([4]; 25 μg E2, Week 0): 57 subjects | Number of subjects with increases in percentages of both superficial vaginal and urethral cells ([4]; 25 μg E2, Week 12): 52 subjects | Mean percentage of superficial urethral cells ([5]; 10 μg E2, Week 0): 2.5% | Mean change from baseline in percentage of superficial urethral cells ([5]; 10 μg E2, Week 12): 6.8% | Mean percentage of superficial urethral cells ([5]; 10 μg E2, Week 12): 9.5% | Mean percentage of superficial urethral cells ([5]; 25 μg E2, Week 0): 3.2% | Mean change from baseline in percentage of superficial urethral cells ([5]; 25 μg E2, Week 12): 7.5% | Mean percentage of superficial urethral cells ([5]; 25 μg E2, Week 12): 11.2% | Maturation value (vaginal cells): approximately 60% | Endometrial biopsy result Abnormal (hyperplasia or carcinoma), number of patients (endometrium; 10 μg E2, Week 12, N = 32): 0 | Endometrial biopsy result Abnormal (hyperplasia or carcinoma), percentage of patients (endometrium; 10 μg E2, Week 12, N = 32): 0.0% | Endometrial biopsy result Abnormal (hyperplasia or carcinoma), percentage of patients (endometrium; 25 μg E2, Week 12, N = 32): 3.1% | Mean maturation value (vaginal mucosal cells; 10 μg E2, Week 0 (baseline), mean ± SD): 51.0 | Number of patients with increases in maturation values from baseline (vaginal mucosal cells; 10 μg E2, Week 12): 14 patients | Number of patients with increases in maturation values from baseline (vaginal mucosal cells; 25 μg E2, Week 12): 13 patients | Mean change from baseline in maturation value (vaginal mucosal cells; 25 μg E2, Week 12, mean ± SD, P ≦ .01): 7.0 ± 8.7^b
